# Measurements reported in article PMC3034713, “Targeting Vascular NADPH Oxidase 1 Blocks Tumor Angiogenesis through a PPARα Mediated Mechanism” (PLoS ONE, 2011).
# Experiments:
# B16F0 tumors = experiment: Tumor growth assay, B16F0 injected subcutaneously; assay type: in vivo, mice; settings: 40 mg/kg/day oral for 8 days
# Procedure: 5. 10^5 of LLC1 or B16F0 were injected subcutaneously on the back of mice. Mice were treated with NOX inhibitor, GKT136901 or vehicle (Carboxymethyl-cellulose, CMC) at 40 mg/kg everyday per os or i.p with anti-VEGFR2 antibody (DC101) at 0.8 mg every 2 days. When the control tumor reached approximately 1 cm in length, mice were sacrificed and the tumor excised, weighed and frozen. Frozen sections of tumors were stained with anti-PECAM-1 antibody (rat monoclonal, [74]).
# MLEC = experiment: Endothelial cell sprouting assay (tube-like structure formation, 3D culture); assay type: cell-based, mouse; settings: MLEC, 10 µM
# Procedure: Sprouting assay was performed as described previously. Briefly, endothelial cells were plated in 96 well plates at 8,000 cells per well in a 3D fibrin gel. Above the gel, 10% FCS containing DMEM was complemented with 200 KIU/ml of Aprotinin (Sigma). Length of branches was evaluated using the Metamorph program. Results are expressed in mm of skeleton length/number of cells.
# iNoS = iNoS (Homo sapiens, UniProt P35228); experiment: Pharmacological profiling (Cerep), Table S1
# 12-Lipoxygenase = 12-Lipoxygenase (Homo sapiens, UniProt P18054); experiment: Pharmacological profiling (Cerep), Table S1
# cNos = experiment: Pharmacological profiling (Cerep), Table S1; assay type: biochemical
# xanthine oxidase = xanthine oxidase (Homo sapiens, UniProt P47989); experiment: Xanthine oxidase inhibition, concentration-response; assay type: biochemical
# [1] = test system: Heart, Kidney, Liver and Lung of mice; settings: mouse, in vivo
# Procedure: Supplementary file pone.0014665.s009.tif: Figure S8 Non toxic effect GKT 136901 on mice organs. Heart (a), Kidney (b), Liver (c) and Lung (d) of mice treated orally with vehicle or with vehicle plus GKT136901 inhibitor at 40 mg/kg per day during 8 days, stained by Hematoxilin/Eosin. Scale bars represent 100 μm on the full picture and 20 μm on the zoom. Images were acquired with a 20x/0.8 numeric aperture and analyzed using Mirax (Carl Zeiss). (8.38 MB TIF) Click here for additional data file.
# PKC a, bI, bII, d = experiment: Pharmacological profiling (Cerep), Table S1
# MPO = MPO (Homo sapiens, UniProt P05164); experiment: Pharmacological profiling (Cerep), Table S1
# PI3K a, b, d, g = experiment: Pharmacological profiling (Cerep), Table S1
# eNos = eNos (Homo sapiens, UniProt P29474); experiment: Pharmacological profiling (Cerep), Table S1
# Sequence of xanthine oxidase (P47989 whole entry, species assumed): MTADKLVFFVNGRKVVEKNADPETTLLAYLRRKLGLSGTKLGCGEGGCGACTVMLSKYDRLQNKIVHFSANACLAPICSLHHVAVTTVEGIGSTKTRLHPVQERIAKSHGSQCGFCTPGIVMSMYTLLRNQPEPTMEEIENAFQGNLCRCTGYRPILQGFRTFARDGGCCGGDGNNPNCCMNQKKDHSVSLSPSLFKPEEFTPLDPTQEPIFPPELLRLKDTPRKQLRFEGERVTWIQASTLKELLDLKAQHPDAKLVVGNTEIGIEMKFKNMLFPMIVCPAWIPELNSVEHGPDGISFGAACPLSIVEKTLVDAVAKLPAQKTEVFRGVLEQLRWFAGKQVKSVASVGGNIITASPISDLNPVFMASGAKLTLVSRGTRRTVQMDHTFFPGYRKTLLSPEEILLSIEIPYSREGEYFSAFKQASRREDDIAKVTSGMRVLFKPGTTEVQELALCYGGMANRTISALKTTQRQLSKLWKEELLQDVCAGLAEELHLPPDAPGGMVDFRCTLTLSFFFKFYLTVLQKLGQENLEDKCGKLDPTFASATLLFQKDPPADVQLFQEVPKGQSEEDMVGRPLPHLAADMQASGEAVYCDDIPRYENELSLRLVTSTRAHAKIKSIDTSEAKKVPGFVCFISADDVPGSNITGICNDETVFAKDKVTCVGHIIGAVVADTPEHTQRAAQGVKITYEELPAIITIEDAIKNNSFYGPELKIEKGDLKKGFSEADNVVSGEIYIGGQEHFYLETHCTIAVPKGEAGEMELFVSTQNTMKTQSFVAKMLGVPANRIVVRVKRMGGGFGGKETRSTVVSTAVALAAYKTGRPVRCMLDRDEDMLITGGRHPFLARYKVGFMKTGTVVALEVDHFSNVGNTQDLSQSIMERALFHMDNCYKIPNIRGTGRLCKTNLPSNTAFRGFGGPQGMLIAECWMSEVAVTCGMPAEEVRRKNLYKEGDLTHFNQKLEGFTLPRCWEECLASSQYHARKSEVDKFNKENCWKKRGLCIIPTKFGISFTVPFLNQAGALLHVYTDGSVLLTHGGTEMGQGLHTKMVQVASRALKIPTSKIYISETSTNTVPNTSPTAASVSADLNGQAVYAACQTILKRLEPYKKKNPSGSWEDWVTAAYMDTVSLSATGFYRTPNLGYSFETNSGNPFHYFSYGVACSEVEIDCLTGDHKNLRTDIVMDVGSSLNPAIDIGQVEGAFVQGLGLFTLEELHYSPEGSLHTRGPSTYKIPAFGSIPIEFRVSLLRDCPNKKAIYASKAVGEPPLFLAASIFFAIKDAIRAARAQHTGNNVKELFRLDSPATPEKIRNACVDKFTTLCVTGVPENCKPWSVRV
# Sequence of MPO (P05164 49-745, species assumed): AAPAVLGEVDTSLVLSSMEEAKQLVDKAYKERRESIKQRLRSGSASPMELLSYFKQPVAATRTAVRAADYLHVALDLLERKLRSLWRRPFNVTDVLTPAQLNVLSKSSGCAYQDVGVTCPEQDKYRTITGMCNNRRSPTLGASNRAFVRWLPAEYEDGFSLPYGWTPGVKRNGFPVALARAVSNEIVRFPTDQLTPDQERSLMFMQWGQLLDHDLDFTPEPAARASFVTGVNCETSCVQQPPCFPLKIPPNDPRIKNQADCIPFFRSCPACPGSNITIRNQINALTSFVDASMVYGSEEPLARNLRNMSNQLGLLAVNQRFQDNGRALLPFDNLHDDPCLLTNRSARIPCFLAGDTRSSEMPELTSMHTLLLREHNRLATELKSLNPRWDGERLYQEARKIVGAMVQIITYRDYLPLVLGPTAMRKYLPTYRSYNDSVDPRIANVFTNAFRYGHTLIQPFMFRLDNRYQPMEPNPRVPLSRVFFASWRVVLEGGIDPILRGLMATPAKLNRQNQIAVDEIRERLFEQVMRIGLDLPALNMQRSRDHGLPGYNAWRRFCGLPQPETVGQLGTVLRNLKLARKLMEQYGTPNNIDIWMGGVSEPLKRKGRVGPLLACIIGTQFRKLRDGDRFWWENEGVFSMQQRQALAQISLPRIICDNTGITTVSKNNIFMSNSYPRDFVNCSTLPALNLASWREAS
# Sequence of 12-Lipoxygenase (P18054 whole entry): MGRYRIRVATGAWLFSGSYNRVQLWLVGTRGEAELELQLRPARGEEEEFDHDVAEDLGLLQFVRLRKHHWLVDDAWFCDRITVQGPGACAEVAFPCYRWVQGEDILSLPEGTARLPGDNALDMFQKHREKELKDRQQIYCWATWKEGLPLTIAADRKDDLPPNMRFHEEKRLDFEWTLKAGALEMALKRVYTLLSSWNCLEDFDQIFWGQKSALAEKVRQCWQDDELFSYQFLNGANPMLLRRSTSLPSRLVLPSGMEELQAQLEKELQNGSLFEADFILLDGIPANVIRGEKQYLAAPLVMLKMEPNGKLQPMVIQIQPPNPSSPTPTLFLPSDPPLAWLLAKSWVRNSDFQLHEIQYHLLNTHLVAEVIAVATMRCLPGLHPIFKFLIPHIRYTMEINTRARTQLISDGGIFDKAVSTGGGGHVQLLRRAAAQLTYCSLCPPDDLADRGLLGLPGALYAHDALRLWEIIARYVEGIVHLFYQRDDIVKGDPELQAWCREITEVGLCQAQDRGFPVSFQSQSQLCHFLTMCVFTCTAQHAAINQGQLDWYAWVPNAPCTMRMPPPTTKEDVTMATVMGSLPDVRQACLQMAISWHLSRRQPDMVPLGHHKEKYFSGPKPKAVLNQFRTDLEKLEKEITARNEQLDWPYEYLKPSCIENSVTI
structure (smiles),measurement,setting,value
Cc1c2c(=O)n(-c3ccccc3Cl)[nH]c2cc(=O)n1Cc1ccccn1 [GKT136901],"tumor vascularization (PECAM-1), vehicle = 100%",B16F0 tumors; B16F0 in PPARα deficient mice,98% ±24
same,"tumor vascularization (PECAM-1), vehicle = 100%",B16F0 tumors; B16F0 in WT mice,64% ±14
same,tube formation,MLEC,inhibition
same,% Inhibition at 10 µM,iNoS,0%
same,% Inhibition at 10 µM,12-Lipoxygenase,2%
same,% Inhibition at 10 µM,cNos,0%
same,Ki,xanthine oxidase,> 100 µM
same,toxic effect on mice (organ histology),[1],no toxic effect
same,% Inhibition at 10 µM,"PKC a, bI, bII, d",0%
same,% Inhibition at 10 µM,MPO,0%
same,% Inhibition at 10 µM,"PI3K a, b, d, g",0%
same,% Inhibition at 10 µM,eNos,6%
